Assay results taken from patent US4716222A, “Substrates for hydrolases” (Hoechst Aktiengesellschaft, priority 1984, dated 1987).
Read-outs that look alike come from different tables or passages of the source.

Assays:
[1] = Extinction coefficients and absorption maxima of dyes at different pH values; format: physicochemical
pKa of the dyes A-OH = format: physicochemical
Text: The compounds of the formula A--O--B can be used as substrates for the detection and the determination of hydrolases. The dye A--OH, which is liberated on cleavage, has appreciable advantages over those of the state of the art. […] This means that even in the pH range below 7 there is compared with p-nitrophenol, a considerably higher extinction at the same molarity, so that the new substrates prepared from these dyes can therefore be measured with considerably greater sensitivity.

β-glucosidase = assay: Determination of β-glucosidase activity in a urine sample; format: biochemical, human; conditions: for Absorbance Difference/min delta A/min: T = 25° C.
Text: The determination of β-glucosidase activity in human urine has hitherto not been possible with the usual assays because of their limited sensitivity.

IgE = assay: Determination of IgE with a state of the art enzyme immunoassay; conditions: same incubation periods; for absorbance change: measuring wavelength 405 nm, same sample
Description: A substantial increase in sensitivity could be achieved using the new substrates in an enzyme immunoassay of the state of the art. In this assay the IgE concentration is determined, as a measure of an allergy by means of the indirect antibody technique. With the same incubation periods for the different substrates, an approximately 4.3-fold higher absorbance for resorufin-β-galactoside (compound S6) and an approximately 1.7-fold higher absorbance for 3-hydroxy-2-nitropyridine-β-galacto-side was measured than for the commercially available o-nitrophenyl-β-galactoside.

α-amylase = assay: Determination of α-amylase activity in a urine sample without auxiliary enzyme α-glucosidase; format: biochemical; conditions: for absorbance change, fold greater than with the nitrophenyl derivative / delta A/min: urine sample; for delta A/min: without auxiliary enzyme α-glucosidase
Description: For determination of α-amylase, the measured extinction changes were compared for the following new substrates: 2H-7-O-(α-D-maltotriosyl)-4-methyl-8-nitrobenzopyran-2-one (compound S10), the corresponding maltotetraosyl compound (compound S11) as well as o-nitrophenyl α-maltotrioside.
585 mg of NaCl and 200 mg of compound S10 were dissolved in 100 ml of M/15 phosphate buffer, pH 6.0. 20 μl of urine were pipetted into 1 ml of this solution which was thoroughly mixed. The change in absorbance at 365 nm was continuously recorded in a photometer with a pen recorder attached. The change in absorbance per miute (delta A/min) was calculated from the recording on the pen recorder, and the enzyme activity (U/L) was calculated using the following formula: [formula] 1.02=assay volume including the sample, in ml 0.02=sample volume in ml

acid phosphatase = target: T1, acid phosphatase (Homo sapiens, UniProt P15309); assay: Kinetic determination of acid phosphatase in seminal plasma; format: biochemical
T1 construct: from tissue; host or cells: seminal plasma, diluted 1:101
T1 sequence (P15309 33-386): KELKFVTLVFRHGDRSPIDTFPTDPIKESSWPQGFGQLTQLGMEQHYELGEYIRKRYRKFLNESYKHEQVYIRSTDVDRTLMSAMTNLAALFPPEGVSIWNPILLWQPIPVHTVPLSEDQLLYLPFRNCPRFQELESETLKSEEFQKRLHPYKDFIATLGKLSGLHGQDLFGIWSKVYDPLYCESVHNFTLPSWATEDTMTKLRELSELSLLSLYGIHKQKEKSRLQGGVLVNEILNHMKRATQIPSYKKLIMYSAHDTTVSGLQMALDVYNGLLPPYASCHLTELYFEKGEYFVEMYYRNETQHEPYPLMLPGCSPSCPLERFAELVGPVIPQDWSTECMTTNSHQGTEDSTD
Description: The activity of acid phosphatase could be kinetically determined substantially more sensitively with 2H-7-O-4-methyl-8-nitrobenzopyran-2-one phosphate (compound S13) than with nitrophenyl phosphate. The determination was carried out in seminal plasma, diluted 1:101 using both substrates. 0.01 ml of diluted sample was added to 1 ml of a buffered substrate solution, pH 4.8 and the extinction changes kinetically recorded at 405 or 365 nm.

SMILES: O=[N+]([O-])c1nc(Cl)ccc1O [3-Hydroxy-2-nitro-6-chloropyridine]
- Extinction coefficient ([1]; pH 4.0, 365 nm): 7.84 1·mol^-1·cm^-1·10^3
- Extinction coefficient ([1]; pH 5.0, 365 nm): 11.87 1·mol^-1·cm^-1·10^3
- Extinction coefficient ([1]; pH 6.0, 365 nm): 12.9 1·mol^-1·cm^-1·10^3
- Extinction coefficient ([1]; pH 7.1, 365 nm): 13.2 1·mol^-1·cm^-1·10^3
- Extinction coefficient ([1]; pH 10, 365 nm): 13.2 1·mol^-1·cm^-1·10^3
- pKa (pKa of the dyes A-OH): 3.9

SMILES: O=[N+]([O-])c1ncccc1O [3-Hydroxy-2-nitropyridine]
- Extinction coefficient ([1]; pH 4.0, 405 nm): 0.50 1·mol^-1·cm^-1·10^3
- Extinction coefficient ([1]; pH 5.0, 405 nm): 2.32 1·mol^-1·cm^-1·10^3
- Extinction coefficient ([1]; pH 6.0, 405 nm): 5.09 1·mol^-1·cm^-1·10^3
- Extinction coefficient ([1]; pH 7.1, 405 nm): 5.80 1·mol^-1·cm^-1·10^3
- Extinction coefficient ([1]; pH 10, 405 nm): 5.90 1·mol^-1·cm^-1·10^3
- pKa (pKa of the dyes A-OH): 5.1

SMILES: O=[N+]([O-])c1ccnc(Cl)c1O [3-Hydroxy-4-nitro-2-chloropyridine]
- Extinction coefficient ([1]; pH 4.0, 405 nm): 4.93 1·mol^-1·cm^-1·10^3
- Extinction coefficient ([1]; pH 5.0, 405 nm): 5.34 1·mol^-1·cm^-1·10^3
- Extinction coefficient ([1]; pH 6.0, 405 nm): 5.40 1·mol^-1·cm^-1·10^3
- Extinction coefficient ([1]; pH 7.1, 405 nm): 5.48 1·mol^-1·cm^-1·10^3
- Extinction coefficient ([1]; pH 10, 405 nm): 5.4 1·mol^-1·cm^-1·10^3
- pKa (pKa of the dyes A-OH): 3.1

SMILES: Cc1cc(=O)oc2c([N+](=O)[O-])c(O)ccc12 [4-Methyl-8-nitrobenzopyran-2-one, 2H-7-hydroxy-4-methyl-8-nitrobenzopyran-2-one]
- pKa (pKa of the dyes A-OH): 4.45

SMILES: O=c1oc2cc(O)ccc2cc1[N+](=O)[O-] [7-hydroxy-3-nitrocoumarin]
- absorption maximum ([1]; pH<6): 390 nm
- absorption maximum ([1]; pH>8): 450 nm

SMILES: O=c1ccc2nc3ccc(O)cc3oc-2c1 [Resorufin, 3H-7-hydroxyphenoxazin-3-one]
- Extinction coefficient ([1]; pH 4.0, 574 nm, mercury lamp photometer, calculated): 1.00 1·mol^-1·cm^-1·10^3
- Extinction coefficient ([1]; pH 4.0, 578 nm, variable wavelength photometer): 0.75 1·mol^-1·cm^-1·10^3
- Extinction coefficient ([1]; pH 5.0, 574 nm, mercury lamp photometer, calculated): 7.4 1·mol^-1·cm^-1·10^3
- Extinction coefficient ([1]; pH 5.0, 578 nm, variable wavelength photometer): 5.7 1·mol^-1·cm^-1·10^3
- Extinction coefficient ([1]; pH 6.0, 574 nm, mercury lamp photometer, calculated): 29.64 1·mol^-1·cm^-1·10^3
- Extinction coefficient ([1]; pH 6.0, 578 nm, variable wavelength photometer): 22.80 1·mol^-1·cm^-1·10^3
- Extinction coefficient ([1]; pH 7.1, 574 nm, mercury lamp photometer): 49.87 1·mol^-1·cm^-1·10^3
- Extinction coefficient ([1]; pH 7.1, 578 nm, variable wavelength photometer): 39.6 1·mol^-1·cm^-1·10^3
- Extinction coefficient ([1]; pH 10, 574 nm, mercury lamp photometer): 55.42 1·mol^-1·cm^-1·10^3
- Extinction coefficient ([1]; pH 10, 578 nm, variable wavelength photometer): 41.000 1·mol^-1·cm^-1·10^3

SMILES: N#Cc1c2ccc(=O)cc-2oc2cc(O)ccc12 [compound C1, 3H-7-Hydroxy-9-cyanoxanthen-3-one]
- absorption maximum [1]: 578 nm
- molar extinction coefficient ([1]; 578 nm and pH 7.1): 64,420 1.mol^-1.cm^-1
- pKa (pKa of the dyes A-OH): 5.55

SMILES: O=[N+]([O-])c1ncccc1O[C@@H]1O[C@H](CO)[C@@H](O)[C@H](O)[C@H]1O [compound S5, 3-O-(β-D-Glucopyranosyl)-2-nitropyridine]
- fold larger absorbance change per minute than with p-nitrophenyl β-D-glucopyranoside (β-glucosidase): approximately 7 fold
- Absorbance Difference/min delta A/min (β-glucosidase): 0,332 A/min

SMILES: O=[N+]([O-])c1ncccc1O[C@@H]1O[C@H](CO)[C@H](O)[C@H](O)[C@H]1O [compound S7, 3-O-(β-D-Galactopyranosyl)-2-nitropyridine]
- absorbance change (IgE): 0.298
- fold higher absorbance than o-nitrophenyl-β-galactoside (IgE): approximately 1.7 fold

SMILES: Cc1cc(=O)oc2c([N+](=O)[O-])c(O[C@H]3O[C@H](CO)[C@@H](O[C@H]4O[C@H](CO)[C@@H](O[C@H]5O[C@H](CO)[C@@H](O)[C@H](O)[C@H]5O)[C@H](O)[C@H]4O)[C@H](O)[C@H]3O)ccc12 [compound S10, 2H-7-O-(α-D-Maltotriosyl)-4-methyl-8-nitrobenzopyran-2-one]
- absorbance change, fold greater than with the nitrophenyl derivative (α-amylase): 32 fold
- delta A/min (α-amylase): 0,635 A/min

SMILES: Cc1cc(=O)oc2c([N+](=O)[O-])c(O[C@H]3O[C@H](CO)[C@@H](O[C@H]4O[C@H](CO)[C@@H](O[C@H]5O[C@H](CO)[C@@H](O[C@H]6O[C@H](CO)[C@@H](O)[C@H](O)[C@H]6O)[C@H](O)[C@H]5O)[C@H](O)[C@H]4O)[C@H](O)[C@H]3O)ccc12 [compound S11, 2H-7-O-(α-D-Maltotetraosyl)-4-methyl-8-nitrobenzopyran-2-one]
- absorbance change, fold greater than with the nitrophenyl derivative (α-amylase): approximately 14 fold
- delta A/min (α-amylase): 0,134 A/min

SMILES: O=[N+]([O-])c1ncccc1O[C@H]1O[C@H](CO)[C@@H](O[C@H]2O[C@H](CO)[C@@H](O[C@H]3O[C@H](CO)[C@@H](O)[C@H](O)[C@H]3O)[C@H](O)[C@H]2O)[C@H](O)[C@H]1O [compound S12, 3-O-(α-D-Maltotriosyl)-2-nitropyridine]
- absorbance changes in comparison with the state of the art (α-amylase; without auxiliary enzyme, immediately linear kinetics): sufficiently high absorbance changes

SMILES: Cc1cc(=O)oc2c([N+](=O)[O-])c(OP(=O)(O)O)ccc12 [compound S13, 2H-7-O-(Phosphoryl)-4-methyl-8-nitrobenzopyran-2-one]
- absorbance change, fold greater than for nitrophenyl phosphate (acid phosphatase): about 13 fold
- Ratio of the absorbance changes (acid phosphatase; relative to p-nitrophenyl phosphate): 13
- delta A/min (acid phosphatase; seminal plasma diluted 1:101, pH 4.8, 405 or 365 nm): 0,0975 A/min

SMILES: O=[N+]([O-])c1ccccc1O[C@H]1O[C@H](CO)[C@@H](O[C@H]2O[C@H](CO)[C@@H](O[C@H]3O[C@H](CO)[C@@H](O)[C@H](O)[C@H]3O)[C@H](O)[C@H]2O)[C@H](O)[C@H]1O [nitrophenyl derivative, o-nitrophenyl α-maltotrioside]
- delta A/min (α-amylase): 0,020 A/min

SMILES: O=[N+]([O-])c1ccccc1O [o-Nitrophenol]
- Extinction coefficient ([1]; pH 4.0, 405 nm): 0.47 1·mol^-1·cm^-1·10^3
- Extinction coefficient ([1]; pH 5.0, 405 nm): 0.48 1·mol^-1·cm^-1·10^3
- Extinction coefficient ([1]; pH 6.0, 405 nm): 0.75 1·mol^-1·cm^-1·10^3
- Extinction coefficient ([1]; pH 7.1, 405 nm): 2.34 1·mol^-1·cm^-1·10^3
- Extinction coefficient ([1]; pH 10, 405 nm): 4.01 1·mol^-1·cm^-1·10^3
- pKa (pKa of the dyes A-OH): 7.08

SMILES: O=[N+]([O-])c1ccccc1O[C@@H]1O[C@H](CO)[C@H](O)[C@H](O)[C@H]1O [o-Nitrophenyl galactoside, o-nitrophenyl-β-galactoside]
- absorbance change (IgE): 0.176

SMILES: O=[N+]([O-])c1ccc(O)cc1 [p-Nitrophenol]
- Extinction coefficient ([1]; pH 4.0, 405 nm): 0.20 1·mol^-1·cm^-1·10^3
- Extinction coefficient ([1]; pH 5.0, 405 nm): 0.40 1·mol^-1·cm^-1·10^3
- Extinction coefficient ([1]; pH 6.0, 405 nm): 1.50 1·mol^-1·cm^-1·10^3
- Extinction coefficient ([1]; pH 7.1, 405 nm): 9.7 1·mol^-1·cm^-1·10^3
- Extinction coefficient ([1]; pH 10, 405 nm): 18.30 1·mol^-1·cm^-1·10^3

SMILES: O=[N+]([O-])c1ccc(O[C@@H]2O[C@H](CO)[C@@H](O)[C@H](O)[C@H]2O)cc1 [p-nitrophenyl derivative, p-nitrophenyl β-D-glucopyranoside]
- Absorbance Difference/min delta A/min (β-glucosidase): 0,0476 A/min
